# From patent US7998936B2, “Use of timosaponin Bll in the preparation of a medicament or product for the prevention and treatment of stroke” (Institute of Radiation Medicine, Academy of Military …, priority 2004, dated 2011)
# Key:
# platelet aggregation = settings: cited from earlier work
# [1] = test system: streptozocin-induced diabetic mouse; settings: cited from earlier work
# IL-10 = assay: ELISA of IL-10 in brain tissue of cerebral ischemia-reperfusion rats; settings: brain homogenate
# IL-1β = assay: ELISA of IL-1β in brain tissue of cerebral ischemia-reperfusion rats; settings: brain homogenate
# TNF-α = assay: ELISA of TNF-α in brain tissue of cerebral ischemia-reperfusion rats; settings: brain homogenate
# [2] = test system: FeCl3-Induced Middle Cerebral Artery Thrombosis (MCAT) Rats; assay: Cerebral infarct size (TTC staining) in FeCl3-induced middle cerebral artery thrombosis rats; format: in vivo, rat; settings: for cerebral infarct size percentage to affected side / cerebral infarct size percentage to total brain: x ± s; for effect on cerebral infarct size (in words): 20 mg/kg and 40 mg/kg, 7 days
# Description: (§1) Tamura and Liu's methods were used with modifications to prepare the model. Rats were anesthetized by intraperitoneal injection of 10% chloral hydrate (0.35 g/kg); and fixed with right arm reclining. An arc incision of about 1.5 cm in length was made at the midpoint between the link of paropia and external auditory canal and temporalis was removed to expose the temporal bone. […] The surrounding-tissues were protected with a piece of plastic film. A small piece of quantitative filter paper, which had absorbed 10 μL of a 50% ferric chloride solution, was applied on this segment of middle cerebral artery. The filter paper was removed after 30 min, and local tissues were rinsed with normal saline solution, followed by suture layer by layer. Then the experimental rats were put back to rearing cage. The temperature was controlled at 24° C. For the sham-operation group, the operation procedures were the same as the model group except for the application of the ferric chloride solution.
# After behavior assessment, the animals were decapitated to remove the brains. The olfactory bulb, cerebellum and lower brain stem were removed, and the remaining part was cut into 5 coronal sections below 4° C. The sections were immediately placed into a TTC staining solution (containing 1.5 m 4% TTC, 0.1 ml 1M K2HPO4 and water (balance) per 5 ml staining solution), followed by incubation in dark at 37° C. for 30 min. Then, the sections were transferred into a solution of 10% formaldehyde and incubated in dark for 24 h. After staining, the non-ischemic areas were rose red, and the infracted areas were white. The white tissues were carefully collected and weighed. The extent of cerebral infarction was expressed as a percentage (%) of infracted tissue to the weight of total brain and also to the affected side of brain.
# [3] = test system: acute blood stagnation model rats; assay: Erythrocyte aggregation and deformability in acute blood stagnation model rats; format: in vivo, rat; settings: for effect on erythrocyte aggregation index (in words) / effect on erythrocyte deformability (in words): vs. model group; for Erythrocyte aggregation SS / Erythrocyte deformability SSS: area under curve; for Erythrocyte aggregation MAXD: maximal erythrocyte aggregation index; for Erythrocyte deformability MAXDI: maximal erythrocyte deformation index
# Description: MAO Teng-min's methods were modified to prepare the model. Rats were subcutaneously injected with 0.8 mg/kg adrenaline twice at 1 h and 5 h after administration on the fifth day, and were placed into ice-water at 4° C. for 5 min at 2 h after the first injection of adrenaline.
# To 40 μl of heparinized blood, 1 ml of deforming solution was added and mixed thoroughly. A sample of 0.8 ml was tested in an erythrocyte aggregation/deformability tester, and erythrocyte deformability was expressed as maximal erythrocyte deformation index and area under curve (SSS). Another 0.8 ml of anticoagulated blood was tested in an erythrocyte aggregation/deformability tester, and erythrocyte aggregation was expressed as maximal erythrocyte aggregation index (MAXD) and area under curve ([…]).
# [4] = test system: acute blood stagnation model rats; assay: Whole blood and plasma viscosities in acute blood stagnation model rats; format: in vivo, rat; settings: for effect on whole blood and plasma viscosities (in words): 10 mg/kg, 20 mg/kg and 40 mg/kg, high, middle and low shear rates
# Description: MAO Teng-min's methods were modified to prepare the model.
# [5] = Fenton reaction system; paramagnetic method; cited from earlier work
# [6] = test system: Middle Cerebral Artery Thrombosis (MCAT) Rats; assay: Water content in brain tissues in middle cerebral artery thrombosis rats; format: in vivo, rat; settings: for Water content of affected hemisphere / Water content of unaffected hemisphere: 24 h after operation
# [7] = test system: FeCl3-Induced Middle Cerebral Artery Thrombosis (MCAT) Rats; assay: Neurological symptom score in middle cerebral artery thrombosis rats; format: in vivo, rat; settings: for effect on neurological symptoms (in words): 20 mg/kg and 40 mg/kg, 7 days; for neurological symptomatic score 6 h: 6 h after operation; for neurological symptomatic score 6 h / neurological symptomatic score 24 h: full score 4; for neurological symptomatic score 24 h: 24 h after operation
# Description: as §1
# The experimental animals were tested for behaviors 6 h and 24 h after operation according to the Sederson's method with modifications. Criteria: (1) The tail of the rat was lifted to observe the flexibility of the forelimb, with both forelimbs symmetrically stretching forward scored as 0, and occurrence of any or all of shoulder inflexion, elbow inflexion, shoulder intorsion in the contralateral fore-limb opposite to the operation side scored as 1. (2) The animal was placed on a plane, and its shoulders were pushed to the opposite direction to check resistance, Equivalency and strong resistance in both sides was scored as 0, and reduction in resistance in the contralateral side was scored as 1. (3) Both forelimbs of the rat were placed on wire gauze to observe the muscular tension. […] According to the criteria above, the full score is 4, and the higher the score is, the more serious the behavior disorder of the animal is.
# [8] = vs. model group P<0.05, P<0.01, listed as timosaponin BIT
# [9] = 40 mg/kg, listed as timosaponin BII, 40 mg/kg
structure (smiles),measurement,setting,value
"C[C@@H](CCC1(O)O[C@H]2C[C@H]3[C@@H]4CC[C@@H]5C[C@@H](O[C@@H]6O[C@H](CO)[C@H](O)[C@H](O)[C@H]6O[C@@H]6O[C@H](CO)[C@@H](O)[C@H](O)[C@H]6O)CC[C@]5(C)[C@H]4CC[C@]3(C)[C@H]2[C@@H]1C)CO[C@@H]1O[C@H](CO)[C@@H](O)[C@H](O)[C@H]1O (stereo partly drawn) [Timosaponin BII, (25S)-26-O-β-D-glucopyranosyl-22-hydroxy-5β-furostane-3β,26-diol-3-O-β-D-glucopyranosyl(1→2)-β-D-galactopyranoside]",clotting time (in words),platelet aggregation,prolonging clotting time
same,platelet aggregation (in words),platelet aggregation,obviously inhibiting platelet aggregation
same,blood sugar level (in words),[1],can lower blood sugar level
same,IL-10,IL-10; 10 mg/kg by gavage 5 days,14.49 ± 11.78 pg/mL
same,IL-10,IL-10; 40 mg/kg by gavage 5 days,11.19 ± 5.16 pg/mL
same,IL-1β,IL-1β; 10 mg/kg by gavage 5 days,9.70 ± 0.30 pg/mL
same,IL-1β,IL-1β; 40 mg/kg by gavage 5 days,7.98 ± 0.80 pg/mL
same,TNFα,TNF-α; 10 mg/kg by gavage 5 days,8.44 ± 0.62 pg/mL
same,TNFα,TNF-α; 40 mg/kg by gavage 5 days,7.65 ± 0.61 pg/mL
same,cerebral infarct size percentage to affected side,[2]; 10 mg/kg by gavage 7 days,6.35 ± 3.39%
same,cerebral infarct size percentage to total brain,[2]; 10 mg/kg by gavage 7 days,3.27 ± 1.74%
same,effect on cerebral infarct size (in words),"[2]; vs. model group P<0.05, P<0.01",significantly reduced the cerebral infarct size
same,effect on cerebral infarct size (in words),[2]; [8],significantly reduce the cerebral infarct size
same,cerebral infarct size percentage to affected side,[2]; 20 mg/kg by gavage 7 days,5.37 ± 2.20 %
same,cerebral infarct size percentage to total brain,[2]; 20 mg/kg by gavage 7 days,2.92 ± 1.20 %
same,cerebral infarct size percentage to affected side,[2]; 40 mg/kg by gavage 7 days,3.88 ± 2.38 %
same,cerebral infarct size percentage to total brain,[2]; 40 mg/kg by gavage 7 days,1.99 ± 1.20 %
same,effect on erythrocyte aggregation index (in words),"[3]; 40 mg/kg, 40 mg/kg",reduce the erythrocyte agglutination index
same,effect on erythrocyte deformability (in words),"[3]; 40 mg/kg, 40 mg/kg",significantly improve the deformation ability of erythrocytes
same,effect on erythrocyte aggregation index (in words),[3]; [9],decrease in erythrocyte aggregation index
same,effect on erythrocyte deformability (in words),[3]; [9],significant increase in erythrocyte deformability index
same,Erythrocyte aggregation SS,[3]; 10 mg/kg,186.67 ± 28.85
same,Erythrocyte deformability SSS,[3]; 10 mg/kg,363.88 ± 19.58
same,Erythrocyte aggregation SS,[3]; 20 mg/kg,163.04 ± 50.23
same,Erythrocyte deformability SSS,[3]; 20 mg/kg,363.97 ± 27.87
same,Erythrocyte aggregation SS,[3]; 40 mg/kg,152.78 ± 28.11
same,Erythrocyte deformability SSS,[3]; 40 mg/kg,374.26 ± 15.82
same,Erythrocyte aggregation MAXD,[3]; 10 mg/kg,0.94 ± 0.14
same,Erythrocyte aggregation MAXD,[3]; 20 mg/kg,0.81 ± 0.26
same,Erythrocyte aggregation MAXD,[3]; 40 mg/kg,0.76 ± 0.14
same,Erythrocyte deformability MAXDI,[3]; 10 mg/kg,0.72 ± 0.05
same,Erythrocyte deformability MAXDI,[3]; 20 mg/kg,0.71 ± 0.05
same,Erythrocyte deformability MAXDI,[3]; 40 mg/kg,0.73 ± 0.03
same,Plasma viscosity (100 S^−1),[4]; 10 mg/kg by gavage 5 days,1.40 ± 0.10
same,Whole blood viscosity 1 S^−1,[4]; 10 mg/kg by gavage 5 days,27.03 ± 4.64
same,Whole blood viscosity 5 S^−1,[4]; 10 mg/kg by gavage 5 days,11.02 ± 1.38
same,Whole blood viscosity 30 S^−1,[4]; 10 mg/kg by gavage 5 days,6.10 ± 0.85
same,Whole blood viscosity 200 S^−1,[4]; 10 mg/kg by gavage 5 days,4.45 ± 0.71
same,effect on whole blood and plasma viscosities (in words),"[4]; P<0.05, P<0.01",significantly lowered whole blood and plasma viscosities
same,effect on whole blood and plasma viscosities (in words),"[4]; P<0.05, P<0.01, listed as timosaponin BII",significantly reduce the whole blood and plasma viscosities
same,Plasma viscosity (100 S^−1),[4]; 20 mg/kg by gavage 5 days,1.36 ± 0.10
same,Whole blood viscosity 1 S^−1,[4]; 20 mg/kg by gavage 5 days,33.13 ± 5.70
same,Whole blood viscosity 5 S^−1,[4]; 20 mg/kg by gavage 5 days,12.91 ± 1.82
same,Whole blood viscosity 30 S^−1,[4]; 20 mg/kg by gavage 5 days,6.55 ± 0.93
same,Whole blood viscosity 200 S^−1,[4]; 20 mg/kg by gavage 5 days,4.49 ± 0.70
same,Plasma viscosity (100 S^−1),[4]; 40 mg/kg by gavage 5 days,1.38 ± 0.12
same,Whole blood viscosity 1 S^−1,[4]; 40 mg/kg by gavage 5 days,31.21 ± 4.29
same,Whole blood viscosity 5 S^−1,[4]; 40 mg/kg by gavage 5 days,12.46 ± 1.33
same,Whole blood viscosity 30 S^−1,[4]; 40 mg/kg by gavage 5 days,6.45 ± 0.60
same,Whole blood viscosity 200 S^−1,[4]; 40 mg/kg by gavage 5 days,4.42 ± 0.38
same,free radicals cleared,[5],57%
same,effect on water content of brain / cerebral edema (in words),"[6]; 40 mg/kg, vs. model group P<0.05, 40 mg/kg",significantly lowered the water content in the affected hemisphere
same,effect on water content of brain / cerebral edema (in words),"[6]; 40 mg/kg, vs. model group P<0.05, listed as timosaponin BIT, 40 mg/kg",significantly reduce the water content of brain
same,Water content of affected hemisphere,[6]; 10 mg/kg,80.52 ± 0.69%
same,Water content of unaffected hemisphere,[6]; 10 mg/kg,79.51 ± 0.57%
same,Water content of affected hemisphere,[6]; 20 mg/kg,80.46 ± 0.79%
same,Water content of unaffected hemisphere,[6]; 20 mg/kg,79.41 ± 0.38%
same,Water content of affected hemisphere,[6]; 40 mg/kg,80.15 ± 0.99 %
same,Water content of unaffected hemisphere,[6]; 40 mg/kg,79.47 ± 0.44%
same,effect on neurological symptoms (in words),"[7]; vs. model group P<0.05, P<0.01",ameliorate neurological symptoms
same,effect on neurological symptoms (in words),[7]; [8],significantly lower the neurological symptom score
same,neurological symptomatic score 6 h,[7]; 10 mg/kg by gavage 7 days,2.08 ± 0.67
same,neurological symptomatic score 6 h,[7]; 20 mg/kg by gavage 7 days,1.82 ± 0.75
same,neurological symptomatic score 6 h,[7]; 40 mg/kg by gavage 7 days,1.50 ± 0.71
same,neurological symptomatic score 24 h,[7]; 10 mg/kg by gavage 7 days,2.08 ± 0.79
same,neurological symptomatic score 24 h,[7]; 20 mg/kg by gavage 7 days,2.00 ± 0.45
same,neurological symptomatic score 24 h,[7]; 40 mg/kg by gavage 7 days,1.90 ± 0.74
